Converted amounts (≈) assume the structure as drawn.
How the values were obtained:
Candida albicans [1] = experiment: Antifungal activity against Candida albicans Y0109 after 24 hrs by serial dilution method; type: functional; settings: Y0109, 24 h
Candida albicans [2] = experiment: Antifungal activity against Candida albicans SC5314 after 24 hrs by serial dilution method; type: functional; settings: SC5314, 24 h
Candida parapsilosis = experiment: Antifungal activity against Candida parapsilosis ATCC 22019 after 24 hrs by serial dilution method; type: functional; settings: Lodderomyces parapsilosis, ATCC 22019, 24 h
Nakaseomyces glabratus = experiment: Antifungal activity against Candida glabrata after 24 hrs by serial dilution method; type: functional
Cryptococcus neoformans = experiment: Antifungal activity against Cryptococcus neoformans after 72 hrs by serial dilution method; type: functional
Aspergillus fumigatus = experiment: Antifungal activity against Aspergillus fumigatus after 48 hrs by serial dilution method; type: functional
Trichophyton rubrum = experiment: Antifungal activity against Trichophyton rubrum by serial dilution method; type: functional
Nannizzia gypsea = experiment: Antifungal activity against Microsporum gypseum by serial dilution method; type: functional
Cytochrome P450 1A2 = target: T1, Cytochrome P450 1A2 (Homo sapiens, UniProt P05177); experiment: Inhibition of CYP1A2 in human liver microsomes using phenacetin as substrate preincubated for 10 mins with substrate followed by NADPH addition measured after 15 mins by LC/MS/MS analysis; type: ADME
T1 sequence (P05177 whole entry): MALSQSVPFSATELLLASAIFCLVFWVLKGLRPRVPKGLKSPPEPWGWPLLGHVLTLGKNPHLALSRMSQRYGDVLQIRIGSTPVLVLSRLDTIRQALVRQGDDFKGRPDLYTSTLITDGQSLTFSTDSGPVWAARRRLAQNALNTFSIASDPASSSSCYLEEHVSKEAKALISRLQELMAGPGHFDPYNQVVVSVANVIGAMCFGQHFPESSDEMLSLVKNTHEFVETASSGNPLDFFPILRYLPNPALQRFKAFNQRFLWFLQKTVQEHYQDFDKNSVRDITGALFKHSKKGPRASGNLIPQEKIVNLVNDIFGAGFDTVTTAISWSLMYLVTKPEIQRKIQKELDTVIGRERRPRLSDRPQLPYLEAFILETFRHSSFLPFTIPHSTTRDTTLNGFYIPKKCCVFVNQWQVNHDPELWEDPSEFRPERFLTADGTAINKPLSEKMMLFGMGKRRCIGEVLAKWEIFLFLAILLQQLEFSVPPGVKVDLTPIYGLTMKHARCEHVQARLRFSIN

Cytochrome P450 2C19 = Cytochrome P450 2C19 (Homo sapiens, UniProt P33261); experiment: Inhibition of CYP2C19 in human liver microsomes using mephenytoin as substrate preincubated for 10 mins with substrate followed by NADPH addition measured after 15 mins by LC/MS/MS analysis; type: ADME
Sequence of Cytochrome P450 2C19 (P33261 whole entry): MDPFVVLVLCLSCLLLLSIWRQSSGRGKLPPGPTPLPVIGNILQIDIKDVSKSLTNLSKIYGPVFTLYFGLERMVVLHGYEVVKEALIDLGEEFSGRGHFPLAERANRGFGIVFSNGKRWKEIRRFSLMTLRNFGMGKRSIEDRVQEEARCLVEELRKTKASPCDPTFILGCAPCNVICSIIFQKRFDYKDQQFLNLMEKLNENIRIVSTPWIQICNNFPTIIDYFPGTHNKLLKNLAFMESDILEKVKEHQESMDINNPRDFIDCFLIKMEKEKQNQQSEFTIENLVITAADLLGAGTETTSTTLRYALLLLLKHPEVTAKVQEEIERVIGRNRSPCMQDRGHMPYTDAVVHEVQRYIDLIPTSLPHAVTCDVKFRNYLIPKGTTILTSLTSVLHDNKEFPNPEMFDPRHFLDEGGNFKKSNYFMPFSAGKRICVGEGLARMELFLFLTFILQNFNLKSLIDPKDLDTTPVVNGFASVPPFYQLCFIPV

Cytochrome P450 2C9 = Cytochrome P450 2C9 (Homo sapiens, UniProt P11712); experiment: Inhibition of CYP2C9 in human liver microsomes using tolbutamide as substrate preincubated for 10 mins with substrate followed by NADPH addition measured after 15 mins by LC/MS/MS analysis; type: ADME
Sequence of Cytochrome P450 2C9 (P11712 whole entry): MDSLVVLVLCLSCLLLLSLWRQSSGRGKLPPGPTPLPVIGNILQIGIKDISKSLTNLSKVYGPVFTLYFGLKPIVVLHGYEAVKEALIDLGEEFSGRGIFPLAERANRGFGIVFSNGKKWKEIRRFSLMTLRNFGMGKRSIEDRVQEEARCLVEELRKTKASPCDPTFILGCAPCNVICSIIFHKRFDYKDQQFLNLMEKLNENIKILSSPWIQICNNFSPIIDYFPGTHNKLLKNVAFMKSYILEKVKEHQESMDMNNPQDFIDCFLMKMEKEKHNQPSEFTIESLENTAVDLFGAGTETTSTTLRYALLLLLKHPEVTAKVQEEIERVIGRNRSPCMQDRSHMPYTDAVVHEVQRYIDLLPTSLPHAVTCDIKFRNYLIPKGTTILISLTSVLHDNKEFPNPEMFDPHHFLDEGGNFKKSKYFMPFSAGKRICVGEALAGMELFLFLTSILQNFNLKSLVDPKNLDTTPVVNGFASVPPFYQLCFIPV

Cytochrome P450 2D6 = Cytochrome P450 2D6 (Homo sapiens, UniProt P10635); experiment: Inhibition of CYP2D6 in human liver microsomes using dextromethorphan as substrate preincubated for 10 mins with substrate followed by NADPH addition measured after 15 mins by LC/MS/MS analysis; type: ADME
Sequence of Cytochrome P450 2D6 (P10635 whole entry): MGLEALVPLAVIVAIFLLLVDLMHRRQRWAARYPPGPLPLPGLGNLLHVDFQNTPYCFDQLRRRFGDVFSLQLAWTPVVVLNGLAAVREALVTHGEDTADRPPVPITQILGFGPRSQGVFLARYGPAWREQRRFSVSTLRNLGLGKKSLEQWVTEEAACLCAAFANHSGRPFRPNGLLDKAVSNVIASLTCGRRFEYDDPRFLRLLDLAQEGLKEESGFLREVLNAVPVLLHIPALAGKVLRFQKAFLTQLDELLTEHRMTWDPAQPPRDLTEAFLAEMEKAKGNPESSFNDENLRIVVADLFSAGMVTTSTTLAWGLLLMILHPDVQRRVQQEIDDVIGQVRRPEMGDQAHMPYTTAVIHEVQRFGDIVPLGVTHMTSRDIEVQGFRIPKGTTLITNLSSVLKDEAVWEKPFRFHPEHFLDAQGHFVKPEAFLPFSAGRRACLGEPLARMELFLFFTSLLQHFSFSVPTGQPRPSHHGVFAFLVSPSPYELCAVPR

Row | Compound | MIC80 (Candida albicans [1]) | MIC80 (Candida albicans [2]) | MIC80 (Candida parapsilosis) | MIC80 (Nakaseomyces glabratus) | MIC80 (Cryptococcus neoformans) | MIC80 (Aspergillus fumigatus) | MIC80 (Trichophyton rubrum) | MIC80 (Nannizzia gypsea) | IC50 (Cytochrome P450 1A2) | IC50 (Cytochrome P450 2C19) | IC50 (Cytochrome P450 2C9) | IC50 (Cytochrome P450 2D6)
1 | CC(C)C1CCC(n2ncn(-c3ccc(C(F)(F)C(O)(Cn4cnnn4)c4ccc(F)cc4F)nc3)c2=O)CC1 (stereo not given) | 8 µg/mL (≈ 14.3 µM) | 16 µg/mL (≈ 28.5 µM) | 16 µg/mL (≈ 28.5 µM) | 16 µg/mL (≈ 28.5 µM) | 16 µg/mL (≈ 28.5 µM) | > 64 µg/mL | 1 µg/mL (≈ 1.78 µM) | > 64 µg/mL |  |  |  | 
2 | O=c1n(-c2ccc(C(F)(F)C(O)(Cn3cnnn3)c3ccc(F)cc3F)nc2)cnn1CCC1CCCCC1 (stereo not given) | 0.5 µg/mL (≈ 0.915 µM) | 1 µg/mL (≈ 1.83 µM) | 0.5 µg/mL (≈ 0.915 µM) | 1 µg/mL (≈ 1.83 µM) | 4 µg/mL (≈ 7.32 µM) | > 64 µg/mL | 8 µg/mL (≈ 14.6 µM) | 4 µg/mL (≈ 7.32 µM) |  |  |  | 
3 | O=c1n(-c2ccc(C(F)(F)C(O)(Cn3cnnn3)c3ccc(F)cc3F)nc2)cnn1C1CCCCC1 (stereo not given) | 0.25 µg/mL (≈ 0.482 µM) | 0.25 µg/mL (≈ 0.482 µM) | 0.25 µg/mL (≈ 0.482 µM) | 0.25 µg/mL (≈ 0.482 µM) | 0.125 µg/mL (≈ 0.241 µM) | > 64 µg/mL | 2 µg/mL (≈ 3.86 µM) | 4 µg/mL (≈ 7.71 µM) | 14.5 µM | 14.6 µM | 16.5 µM | 21.1 µM
4 | OC(Cn1cncn1)(Cn1cncn1)c1ccc(F)cc1F [FLUCONAZOLE] | 2 µg/mL (≈ 6.53 µM) | 0.5 µg/mL (≈ 1.63 µM) | 1 µg/mL (≈ 3.27 µM) | 0.5 µg/mL (≈ 1.63 µM) | 0.5 µg/mL (≈ 1.63 µM) | > 64 µg/mL | 2 µg/mL (≈ 6.53 µM) | 8 µg/mL (≈ 26.1 µM) |  |  |  | 
5 | O=c1n(-c2ccc(C(F)(F)C(O)(Cn3cnnn3)c3ccc(F)cc3F)nc2)cnn1CC1CCCCC1 (stereo not given) | 0.5 µg/mL (≈ 0.939 µM) | 1 µg/mL (≈ 1.88 µM) | 0.25 µg/mL (≈ 0.469 µM) | 1 µg/mL (≈ 1.88 µM) | 1 µg/mL (≈ 1.88 µM) | > 64 µg/mL | 2 µg/mL (≈ 3.76 µM) | 4 µg/mL (≈ 7.51 µM) |  |  |  | 
6 | O=c1n(-c2ccc(C(F)(F)C(O)(Cn3cnnn3)c3ccc(F)cc3F)nc2)cnn1C1CCCCCCC1 (stereo not given) | 1 µg/mL (≈ 1.83 µM) | 2 µg/mL (≈ 3.66 µM) | 2 µg/mL (≈ 3.66 µM) | 4 µg/mL (≈ 7.32 µM) | 2 µg/mL (≈ 3.66 µM) | > 64 µg/mL | 1 µg/mL (≈ 1.83 µM) | > 64 µg/mL |  |  |  | 
7 | O=c1n(-c2ccc(C(F)(F)C(O)(Cn3cnnn3)c3ccc(F)cc3F)nc2)cnn1C1CCCC1 (stereo not given) | 0.25 µg/mL (≈ 0.496 µM) | 0.25 µg/mL (≈ 0.496 µM) | 0.125 µg/mL (≈ 0.248 µM) | 2 µg/mL (≈ 3.96 µM) | 1 µg/mL (≈ 1.98 µM) | > 8 µg/mL | 4 µg/mL (≈ 7.93 µM) | 16 µg/mL (≈ 31.7 µM) | 22.6 µM | 17 µM | 11.9 µM | 10.8 µM
8 | O=c1n(-c2ccc(C(F)(F)C(O)(Cn3cnnn3)c3ccc(F)cc3F)nc2)cnn1C1CC=CCC1 (stereo not given) | 0.5 µg/mL (≈ 0.968 µM) | 0.5 µg/mL (≈ 0.968 µM) | 0.125 µg/mL (≈ 0.242 µM) | 1 µg/mL (≈ 1.94 µM) | 1 µg/mL (≈ 1.94 µM) | > 64 µg/mL | 2 µg/mL (≈ 3.87 µM) | 8 µg/mL (≈ 15.5 µM) |  |  |  | 
9 | CC1(C)CCC(n2ncn(-c3ccc(C(F)(F)C(O)(Cn4cnnn4)c4ccc(F)cc4F)nc3)c2=O)CC1 (stereo not given) | 4 µg/mL (≈ 7.32 µM) | 4 µg/mL (≈ 7.32 µM) | 4 µg/mL (≈ 7.32 µM) | 8 µg/mL (≈ 14.6 µM) | 4 µg/mL (≈ 7.32 µM) | > 64 µg/mL | 0.125 µg/mL (≈ 0.229 µM) | > 64 µg/mL |  |  |  | 
10 | O=c1n(-c2ccc(C(F)(F)C(O)(Cn3cnnn3)c3ccc(F)cc3F)nc2)cnn1C1CCC(F)(F)CC1 (stereo not given) | 0.5 µg/mL (≈ 0.902 µM) | 1 µg/mL (≈ 1.8 µM) | 0.5 µg/mL (≈ 0.902 µM) | 2 µg/mL (≈ 3.61 µM) | 0.5 µg/mL (≈ 0.902 µM) | > 64 µg/mL | 2 µg/mL (≈ 3.61 µM) | > 64 µg/mL |  |  |  | 
11 | COC1CCC(n2ncn(-c3ccc(C(F)(F)C(O)(Cn4cnnn4)c4ccc(F)cc4F)nc3)c2=O)CC1 (stereo not given) | 0.5 µg/mL (≈ 0.912 µM) | 1 µg/mL (≈ 1.82 µM) | 1 µg/mL (≈ 1.82 µM) | 4 µg/mL (≈ 7.29 µM) | 1 µg/mL (≈ 1.82 µM) | > 64 µg/mL | 8 µg/mL (≈ 14.6 µM) | > 64 µg/mL |  |  |  | 
12 | CC1CCC(n2ncn(-c3ccc(C(F)(F)C(O)(Cn4cnnn4)c4ccc(F)cc4F)nc3)c2=O)CC1 (stereo not given) | 1 µg/mL (≈ 1.88 µM) | 2 µg/mL (≈ 3.76 µM) | 1 µg/mL (≈ 1.88 µM) | 2 µg/mL (≈ 3.76 µM) | 1 µg/mL (≈ 1.88 µM) | > 64 µg/mL | 0.5 µg/mL (≈ 0.939 µM) | > 64 µg/mL |  |  |  | 
13 | O=c1n(-c2ccc(C(F)(F)C(O)(Cn3cnnn3)c3ccc(F)cc3F)nc2)cnn1C1CCC1 (stereo not given) | 0.25 µg/mL (≈ 0.51 µM) | 1 µg/mL (≈ 2.04 µM) | 0.5 µg/mL (≈ 1.02 µM) | 1 µg/mL (≈ 2.04 µM) | 0.5 µg/mL (≈ 1.02 µM) | > 64 µg/mL | 8 µg/mL (≈ 16.3 µM) | > 64 µg/mL |  |  |  | 
14 | O=c1n(-c2ccc(C(F)(F)C(O)(Cn3cnnn3)c3ccc(F)cc3F)nc2)cnn1C1CCCCCC1 (stereo not given) | 0.5 µg/mL (≈ 0.939 µM) | 1 µg/mL (≈ 1.88 µM) | 0.5 µg/mL (≈ 0.939 µM) | 1 µg/mL (≈ 1.88 µM) | 0.5 µg/mL (≈ 0.939 µM) | > 64 µg/mL |  | > 64 µg/mL |  |  |  | 
15 | OC(Cn1cnnn1)(c1ccc(F)cc1F)C(F)(F)c1ccc(-c2ccc(OCC(F)(F)F)cc2)cn1 (racemic) | 1 µg/mL (≈ 1.9 µM) | 1 µg/mL (≈ 1.9 µM) | 0.5 µg/mL (≈ 0.948 µM) | 2 µg/mL (≈ 3.79 µM) | 1 µg/mL (≈ 1.9 µM) | > 8 µg/mL | 2 µg/mL (≈ 3.79 µM) | 8 µg/mL (≈ 15.2 µM) | 28.9 µM | 8.5 µM | 11.5 µM | 8.7 µM
16 | CC(C)n1ncn(-c2ccc(C(F)(F)C(O)(Cn3cnnn3)c3ccc(F)cc3F)nc2)c1=O (stereo not given) | 1 µg/mL (≈ 2.09 µM) | 1 µg/mL (≈ 2.09 µM) | 0.5 µg/mL (≈ 1.05 µM) | 2 µg/mL (≈ 4.18 µM) | 8 µg/mL (≈ 16.7 µM) | > 8 µg/mL |  |  |  |  |  | 
17 | O=c1n(-c2ccc(C(F)(F)C(O)(Cn3cnnn3)c3ccc(F)cc3F)nc2)cnn1Cc1cccnc1 (stereo not given) | 4 µg/mL (≈ 7.58 µM) | 8 µg/mL (≈ 15.2 µM) | 8 µg/mL (≈ 15.2 µM) | 4 µg/mL (≈ 7.58 µM) | 2 µg/mL (≈ 3.79 µM) | > 64 µg/mL |  |  |  |  |  | 
18 | CC(O)Cn1ncn(-c2ccc(C(F)(F)C(O)(Cn3cnnn3)c3ccc(F)cc3F)nc2)c1=O (stereo not given) | > 8 µg/mL | > 8 µg/mL | 8 µg/mL (≈ 16.2 µM) | > 8 µg/mL | 8 µg/mL (≈ 16.2 µM) | > 8 µg/mL |  |  |  |  |  | 
19 | O=c1n(-c2ccc(C(F)(F)C(O)(Cn3cnnn3)c3ccc(F)cc3F)nc2)cnn1CCO (stereo not given) | > 8 µg/mL | > 8 µg/mL | > 8 µg/mL | > 8 µg/mL | > 8 µg/mL | > 8 µg/mL |  |  |  |  |  | 

— ChEMBL document CHEMBL4184109, “Design, synthesis, and structure-activity relationship studies of novel tetrazole antifungal agents with potent activity, broad antifungal spectrum and high selectivity” (Bioorg Med Chem Lett, 2018)
